{"source": "patent US20250179103A1", "about": "“6-OXODECAHYDROPYRROLO[1,2-A][1,5]DIAZOCINE AND 6-OXODECAHYDRO-4H-PYRROLO[2,1-D][1,5]THIAZOCINE DERIVATIVES AS STAT3 AND STAT6 MODULATORS FOR THE TREATMENT OF CANCER AND INFLAMMATORY CONDITIONS” (Recludix Pharma, Inc., priority 2022, published 2025)", "key": {"[1]": {"tested_on": "pY641-STAT6 in Peripheral Blood Mononuclear Cells (PBMC)", "assay": "MSD-pSTAT-PBMC Assay (pSTAT6, IL-4 stimulated)", "assay_type": "cell-based, Human", "details": "compound 3 hrs, then 1 ng/mL IL-4 for 10 min", "outline": "(§1)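 Human PBMCs were preincubated 3 h with compound, then stimulated 10 min with 10 ng/mL IL-6 (pY705-STAT3) or 1 ng/mL IL-4 (pY641-STAT6). Lysates were read by MSD sandwich immunoassay, capturing total STAT and detecting phospho-STAT. Signal was unstimulated-subtracted and DMSO-normalised, with variable-slope IC50 binned A–D.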"}, "[2]": {"tested_on": "pY705-STAT3 in Peripheral Blood Mononuclear Cells (PBMC)", "assay": "MSD-pSTAT-PBMC Assay (pSTAT3, IL-6 stimulated)", "assay_type": "cell-based, Human", "details": "Homo sapiens, compound 3 hrs, then 10 ng/mL IL-6 for 10 min", "outline": "as §1"}}}
{"smiles": "CCCC(=O)SCCOP(=O)(OCCSC(=O)CCC)C(F)(F)c1ccc2sc(C(=O)N[C@H]3CN(C(C)=O)CC[C@H]4CC[C@@H](C(=O)N(C)c5ccccc5)N4C3=O)cc2c1", "note": "[Compound 280, S,S′-(((((2-(((5S,8S, 10aR)-3-acetyl-8-(methyl (phenyl)carbamoyl)-6-oxodecahydro-pyrrolo[1,2-a][1,5]diazocin-5-yl)carbamoyl)benzo[b]thiophen-5-yl)difluoro-methyl)phos-phoryl)bis (oxy))bis (ethane-2,1-diyl))di-butanethioate]", "values": [{"measurement": "IC50", "setting": "[1]; Homo sapiens", "result": "100 to 1000", "unit": "nM"}, {"measurement": "IC50", "setting": "[2]", "result": "1000 to 3000", "unit": "nM"}]}
{"smiles": "CC(C)(C)C(=O)OCOP(=O)(OCOC(=O)C(C)(C)C)C(F)(F)c1ccc2sc(C(=O)N[C@H]3CN(CC(F)F)CC[C@H]4CC[C@@H](C(=O)N5CC(C(=O)N6CCOCC6)C5)N4C3=O)cc2c1", "note": "[Compound 350, ((((2-(((5S,8S,10aR)-3-(2,2-difluoroethyl)-8-(3-(morpholine-4-carbonyl)azetidine-1-carbonyl)-6-oxodecahydropyrrolo[1,2-a][1,5]diazocin-5-yl)carbamoyl)benzo[b]thiophen-5-yl)difluoromethyl)phosphoryl)bis (oxy))bis(methylene) bis(2,2-dimethylpropanoate)]", "values": [{"measurement": "IC50", "setting": "[1]", "result": "100 to 1000", "unit": "nM"}, {"measurement": "IC50", "setting": "[2]", "result": "≤ 100", "unit": "nM"}]}
{"smiles": "CCN1CC[C@H]2CC[C@@H](C(=O)N3C[C@@H](C#N)[C@H](c4ccccc4)C3)N2C(=O)[C@@H](NC(=O)c2cc3cc(C(F)(F)P(=O)(OCCSC(=O)C(C)(C)C)OCCSC(=O)C(C)(C)C)ccc3s2)C1", "note": "(single isomer, unassigned) [Compound 330, S,S′-(((((2-(((5S,8S,10aR)-8-((3S,4R or 3R,4S)-3-cyano-4-phenylpyrrolidine-1-carbonyl)-3-ethyl-6-oxodecahydropyrrolo[1,2-a][1,5]diazocin-5-yl)carbamoyl)benzo[b]thiophen-5-yl)difluoromethyl)phosphoryl)bis(oxy))bis(ethane-2,1-diyl)) bis(2,2-dimethylpropanethioate)]", "values": [{"measurement": "IC50", "setting": "[1]; Homo sapiens", "result": "1000 to 3000", "unit": "nM"}, {"measurement": "IC50", "setting": "[2]", "result": "1000 to 3000", "unit": "nM"}]}
{"smiles": "CC(=O)N1CC[C@H]2CC[C@@H](C(=O)N(C)c3ccccc3)N2C(=O)[C@@H](NC(=O)c2cc3cc(C(F)(F)P(=O)(N[C@H](C)C(=O)OC(C)C)Oc4ccccc4)ccc3s2)C1", "note": "(stereo partly drawn) [Compound 326, isopropyl (((2-(((5S,8S, 10aR)-3-acetyl-8-(methyl (phenyl)carbamoyl)-6-oxodecahydro-pyrrolo[1,2-a][1,5]diazocin-5-yl)carbamoyl)benzo[b]thiophen-5-yl)difluoro-methyl) (phenoxy)phosphoryl)-D-alaninate]", "values": [{"measurement": "IC50", "setting": "[1]; Homo sapiens", "result": "> 3000", "unit": "nM"}, {"measurement": "IC50", "setting": "[2]", "result": "> 3000", "unit": "nM"}]}
{"smiles": "CC(=O)N1CC[C@H]2CC[C@@H](C(=O)NC3CCN(S(C)(=O)=O)CC3)N2C(=O)[C@@H](NC(=O)c2cc3cc(C(F)(F)P(=O)(OCOC(=O)C(C)(C)C)OCOC(=O)C(C)(C)C)ccc3s2)C1", "note": "[Compound 313, ((((2-(((5S, 8S,10aR)-3-acetyl-8-((1-(methyl-sulfonyl)piperidin-4-yl)carbamoyl)-6-oxodecahydro-pyrrolo[1,2-a][1,5]diazocin-5-yl)carbamoyl)benzo[b]thiophen-5-yl)difluoro-methyl)phos-phoryl)bis(oxy)) bis(methylene) bis(2,2-dimethylpro-panoate)]", "values": [{"measurement": "IC50", "setting": "[1]; Homo sapiens", "result": "1000 to 3000", "unit": "nM"}, {"measurement": "IC50", "setting": "[2]", "result": "> 3000", "unit": "nM"}]}
{"smiles": "CNC(=O)[C@@H]1CC[C@@H]2CCN(C(=O)c3n[nH]c4ccc(C)cc34)C[C@H](NC(=O)c3ccc4ccc(C(F)(F)P(=O)(OCOC(=O)OC(C)C)OCOC(=O)OC(C)C)cc4c3)C(=O)N21", "note": "[Compound 328, (((difluoro(7-(((5S,8S,10aR)-3-(5-methyl-1H-indazole-3-carbonyl)-8-(methylcarbamoyl)-6-oxodecahydro-pyrrolo[1,2-a][1,5]diazocin-5-yl)carbamoyl)naphthalen-2-yl)methyl)phosphoryl)bis(oxy))bis(methylene) diisopropylbis(carbonate)]", "values": [{"measurement": "IC50", "setting": "[1]; Homo sapiens", "result": "100 to 1000", "unit": "nM"}, {"measurement": "IC50", "setting": "[2]", "result": "> 3000", "unit": "nM"}]}
